Reference: US20040043084A1, “Method of enhancing biological activity of plant extracts” (priority 2002, published 2004)

Tests used:
skin = assay: Skin exfoliation via D-Squame discs and image analysis; format: in vivo, human; settings: tested previously in a base, activity over the placebo, 1.0% active in formula
Text: The subjects included in this study were 120 females between the ages of 21 and 65 years, all meeting the screening criteria of good health and not being pregnant or lactating. The subjects reported for testing without moisturizers or any other products on their hands and baseline measurements were taken. They were randomly assigned to one of the following eight treatment groups. They were given the product to take home and self-administer to their right hand only, twice a day in the morning after washing and in the evening at least 15 minutes before bedtime for four weeks. The left hand served as the untreated control site. The subjects were only allowed to use the test product and specifically log its use in a daily diary provided. At the end of two and four weeks the subjects returned for testing without applying the product for at least 12 hours and they were re-evaluated under the same conditions. Skin Exfoliation via D-Squame Discs Method and Image Analysis Four D-Squame discs were firmly and evenly pressed on the face and the back of each hand with a hand held uniform pressure device and removed by gently pulling away from the skin. The D-Squame discs were mounted on clear microscope slides and labeled according to panelist name and visit. Desquamation was evaluated from the D-Squame discs via the image analyzer. Skin evaluation was carried out before treatment, and after two and four weeks of treatment. The OPTIMA image analyzer was used to evaluate skin flakiness. The D-Squame samples containing the stratum corneocytes are placed under a camera on top of a light table and each image is imported into the image analyzer. The average Gray Value corresponding to the sample density is measured. The denser the sample the higher the Gray value difference. Skin exfoliation was evaluated by measuring the amount of flakes removed from the skin surface using D-Squame discs and analyzing them via the IA method. In this study several ferment combinations of N-Acetyl D-Glucosamine and Mannose 6-Phosphate vs. the placebo, the broth and the ferment as controls, for their effect on skin desquamation. […] Another series of tests were conducted as described above. The concentration of N-acetyl D-glucosamine and mannose 6-phosphate was reduced by 10 fold without compromising their activity. Table 4 below summarizes the actual active concentrations used with a brief description along with their activity.

[1] = system: UV induced peroxidation of lipids; assay: inhibition of UV induced peroxidation of lipids (liposomal assay, Pelle et al.); format: biochemical
Text: Caffeine was subjected to bioconversion at concentration as indicated(w/v) in water or in a mixture of structured waters (I/S 60/40).
P. ulei is an equatorial plant known to have anti-inflammatory properties. A. purchyriminor is an equatorial plant containing inhibitors of PAF (Platelet Activating Factor). […] The untreated extracts at a concentration 1% each, are combined and diluted to 0.1% each and subjected to bioconversion.

Compound	Decrease in Flakiness 2 wk (skin) [%]	Decrease in Flakiness 4 wk (skin) [%]	Inhibition of lipid peroxidation ([1]; Caffeine Concentration 0.05%) [%]	Inhibition of lipid peroxidation ([1]; Caffeine Concentration 0.25%) [%]	Inhibition of lipid peroxidation ([1]; Caffeine Concentration 0.5%) [%]	other results
O=C[C@@H](O)[C@@H](O)[C@H](O)[C@H](O)COP(=O)(O)O [1% Mannose 6-Phosphate, Mannose 6-Phosphate]	22	29	–	–	–	–
CC(=O)N[C@H]1C(O)O[C@H](CO)[C@@H](O)[C@@H]1O (stereo partly shown) [1% N-Acetyl Glucosamine, N-Acetyl Glucosamine]	16	27	–	–	–	–
Cn1c(=O)c2c(ncn2C)n(C)c1=O [Caffeine Non bioconverted H2O, Caffeine]	–	–	30	54	66	–
Cn1c(=O)c2c(ncn2C)n(C)c1=O [Caffeine Non bioconverted I/S water, Caffeine]	–	–	24	58	66	–
Oc1ccc(C=Cc2cc(O)cc(O)c2)cc1 [Resveratrol Nonbioconverted, Resveratrol]	–	–	–	–	–	Anti-oxidant activity ([1]; Concentration of Resveratrol in S water 0.05%): 1.8%; Anti-oxidant activity ([1]; Concentration of Resveratrol in S water 0.25%): 8%; Anti-oxidant activity ([1]; Concentration of Resveratrol in S water 0.5%): 39%
